Test results taken from article PMC12251549, “Engineering a Radiohybrid PSMA Ligand with an Albumin-Binding Moiety and Pharmacokinetic Modulation via an Albumin-Binding Competitor for Radiotheranostics” (Molecules, 2025).

Key:
[1] = system: PSMA-expressing LNCaP cells; assay: Cellular uptake and internalization in LNCaP cells, blocking with 2-PMPA; type: cell-based
Description: Cellular uptake experiments were performed according to a previous report with slight modifications. LNCaP cells expressing PSMA were cultured in RPMI 1640 medium containing 10% fetal bovine serum (FBS) and 1% penicillin–streptomycin on 6-well culture plates (containing 5 × 10^5 cells/well) for 24 h in a humidified atmosphere (5% CO2) incubator at 37 °C. After removing the medium and washing with phosphate-buffered saline (PBS) (−) once, a mixed solution of [^125I]5 and [^211At]6, [^125I]5 and [^67Ga]Ga-PSMA-617, and [^125I]5 and [^67Ga]5 in 1.0 mL of medium without FBS was added (3.7 kBq/each tracer/well). The final concentrations of the radioligands for [^125I]5, [^211At]6, and [^67Ga]5 were 45.5 pM, 0.2 pM, and 2.5 pM, respectively. These solutions containing radioligands were diluted in saline containing 0.05% (w/v) bovine serum albumin (BSA) to prevent adsorption to tubes or plates and further diluted with medium to 0.00125% as the final BSA concentration. After incubation for 10, 60, and 120 min, the medium from each well was removed, and the cells were washed twice with ice-cold PBS (−); the surface of the cells was washed twice with ice-cold 0.2 M glycine buffer (pH 3.0). The cells were lysed using a 1 M NaOH aqueous solution. The radioactivity of ^67Ga,^125I and ^211At in the 1 M NaOH aqueous solution was determined and defined as the internalized radioligand fraction using an auto well gamma counter (ARC-8001, Hitachi, Ltd., Tokyo, Japan) according to a previous paper. The radioactivity was determined with an auto well gamma counter and corrected for background radiation and physical decay during counting. A window from 16 to 69 keV was used for counting ^125I, and a window from 70 to 120 keV was used for counting ^211At. Correlation factors to eliminate any crossover of ^125I activity in the ^211At counts were determined by measuring the ^125I standard in each window. More than one week after the experiments, the radioactivity counts of ^125I were measured after the decay of ^211At. The protein amount in cells was quantified using a BCA Protein Assay Kit (Nacalai Tesque, Kyoto, Japan) according to the manufacturer’s protocol. All data were expressed as percent dose per milligram protein (%dose/mg protein). In blocking experiments, a selective inhibitor of the PSMA, (2S)-2-(phosphonomethyl)pentanedioic acid (2-PMPA) (final concentration 100 µM), was added to each well with tracers. After incubation for 10, 60, and 120 min, radioactivity and protein concentration were determined in the same manner as the experiment without the blocking agent.

[2] = In vitro stability test in 0.1 M phosphate buffer; type: physicochemical; conditions: 0.1 M PB solution containing 10% ethanol, 37 °C, 24 h, mean ± SD for three samples
Description: samples were analyzed by RP-HPLC using a Cosmosil 5C18-AR-II (4.6 × 150 mm) at a flow rate of 1 mL/min with a gradient mobile phase of 60% methanol in water with 0.1% trifluoroacetic acid (TFA) to 80% methanol in water with 0.1% TFA for 20 min.
In vitro stability test in 0.1 M PB solution containing 10% ethanol was performed. The […]
and 97.1 ± 0.9% (mean ± SD for three samples) after incubating at 37 °C for 24 h, […]

[3] = Biodistribution after intravenous co-injection of [125I]5 and [67Ga]Ga-PSMA-617 (Table S1); type: in vivo, normal mice (ddY); conditions: normal mice; for Biodistribution of radioactivity: Blood / Biodistribution of radioactivity: Bone / Biodistribution of radioactivity: Brain / Biodistribution of radioactivity: Heart / Biodistribution of radioactivity: Kidney / Biodistribution of radioactivity: L. Intestine / Biodistribution of radioactivity: Liver / Biodistribution of radioactivity: Lung / Biodistribution of radioactivity: Muscle / Biodistribution of radioactivity: Neck / Biodistribution of radioactivity: Pancreas / Biodistribution of radioactivity: S. Intestine / Biodistribution of radioactivity: Spleen / Biodistribution of radioactivity: Stomach: i.v.
Description: [^67Ga]Ga-PSMA-617 (37 kBq) and [^125I]5 (37 kBq) or [^125I]5 (37 kBq) and [^211At]6 (37 kBq) were intravenously co-administered into three or four normal mice at each timepoint (6 weeks male ddY mice, 28–30 g, Japan SLC, Inc., Hamamatsu, Japan). Mice were sacrificed at 10 min, 1 h, 4 h, and 24 h ([^67Ga]Ga-PSMA-617 and [^125I]5) or at 10 min, 1 h, 4 h, 12 h, and 24 h ([^125I]5 and [^211At]6) postinjection of the radiolabeled compounds. Tissues of interest were removed and weighed, and the radioactivity of ^67Ga and ^125I and ^125I and ^211At were determined with an auto well gamma counter (ARC-8001) and corrected for background radiation as described in the Cellular Uptake Experiments Section. To determine the amount and routes of the radioactivity excreted from the body for 24 h after the injection of radiolabeled compounds, mice were housed in metabolic cages (METABOLICA, SUGIYAMA-GEN Co., Ltd., Tokyo, Japan). Data are shown as the percentage of injected dose per gram of tissues (%ID/g) or %ID.

O=C([O-])CN1CCN(CC(=O)[O-])CCN(CC(=O)NC(CCCCNC(=O)CCCc2ccc(I)cc2)C(=O)NCC2CCC(C(=O)NC(Cc3ccc4ccccc4c3)C(=O)NCCCCC(NC(=O)NC(CCC(=O)O)C(=O)O)C(=O)O)CC2)CCN(CC(=O)[O-])CC1.[67Ga+3] (centres unmarked) [[^67Ga]5]
Effect of excess 2-PMPA on cellular uptake ([1]; 2-PMPA 100 µM): significantly reduced | Radiochemical purity after incubation (in vitro stability) [2]: 93.1 ± 0.9%

O=C([O-])CN1CCN(CC(=O)[O-])CCN(CC(=O)NCC2CCC(C(=O)NC(Cc3ccc4ccccc4c3)C(=O)NCCCCC(NC(=O)NC(CCC(=O)O)C(=O)O)C(=O)O)CC2)CCN(CC(=O)[O-])CC1.[67Ga+3] (centres unmarked) [[^67Ga]Ga-PSMA-617, reference compound]
Cellular uptake and internalization levels compared with [125I]5 and [211At]6 [1]: lower | Clearance from organs ([3]; 1 h postinjection): rapid clearance from most organs except the kidney | Excretion in feces ([3]; 24 h postinjection): 2.4 ± 0.3 %ID | Excretion in urine ([3]; 24 h postinjection): 58.0 ± 2.6 %ID | Biodistribution of radioactivity: Blood ([3]; 10 min after injection): 3.40 (0.42) % injected dose per gram | Biodistribution of radioactivity: Bone ([3]; 10 min after injection): 1.02 (0.23) % injected dose per gram | Biodistribution of radioactivity: Brain ([3]; 10 min after injection): 0.11 (0.02) % injected dose per gram | Biodistribution of radioactivity: Heart ([3]; 10 min after injection): 1.22 (0.11) % injected dose per gram | Biodistribution of radioactivity: Kidney ([3]; 10 min after injection): 69.46 (8.76) % injected dose per gram | Biodistribution of radioactivity: L. Intestine ([3]; 10 min after injection): 0.58 (0.07) % injected dose per gram | Biodistribution of radioactivity: Liver ([3]; 10 min after injection): 0.74 (0.10) % injected dose per gram | Biodistribution of radioactivity: Lung ([3]; 10 min after injection): 2.60 (0.40) % injected dose per gram | Biodistribution of radioactivity: Muscle ([3]; 10 min after injection): 0.75 (0.08) % injected dose per gram | Biodistribution of radioactivity: Neck ([3]; 10 min after injection): 0.02 (0.01) % injected dose | Biodistribution of radioactivity: Pancreas ([3]; 10 min after injection): 1.03 (0.18) % injected dose per gram | Biodistribution of radioactivity: S. Intestine ([3]; 10 min after injection): 0.75 (0.03) % injected dose per gram | Biodistribution of radioactivity: Spleen ([3]; 10 min after injection): 0.96 (0.09) % injected dose per gram | Biodistribution of radioactivity: Stomach ([3]; 10 min after injection): 0.38 (0.02) % injected dose | Biodistribution of radioactivity: Blood ([3]; 1 h after injection): 0.29 (0.04) % injected dose per gram | Biodistribution of radioactivity: Bone ([3]; 1 h after injection): 0.18 (0.04) % injected dose per gram | Biodistribution of radioactivity: Brain ([3]; 1 h after injection): 0.02 (0.00) % injected dose per gram | Biodistribution of radioactivity: Heart ([3]; 1 h after injection): 0.11 (0.00) % injected dose per gram | Biodistribution of radioactivity: Kidney ([3]; 1 h after injection): 16.32 (3.17) % injected dose per gram | Biodistribution of radioactivity: L. Intestine ([3]; 1 h after injection): 0.07 (0.01) % injected dose per gram | Biodistribution of radioactivity: Liver ([3]; 1 h after injection): 0.18 (0.07) % injected dose per gram | Biodistribution of radioactivity: Lung ([3]; 1 h after injection): 0.28 (0.03) % injected dose per gram | Biodistribution of radioactivity: Muscle ([3]; 1 h after injection): 0.09 (0.00) % injected dose per gram | Biodistribution of radioactivity: Neck ([3]; 1 h after injection): 0.00 (0.00) % injected dose | Biodistribution of radioactivity: Pancreas ([3]; 1 h after injection): 0.14 (0.03) % injected dose per gram | Biodistribution of radioactivity: S. Intestine ([3]; 1 h after injection): 0.16 (0.02) % injected dose per gram | Biodistribution of radioactivity: Spleen ([3]; 1 h after injection): 0.14 (0.01) % injected dose per gram | Biodistribution of radioactivity: Stomach ([3]; 1 h after injection): 0.07 (0.02) % injected dose | Biodistribution of radioactivity: Blood ([3]; 4 h after injection): 0.07 (0.01) % injected dose per gram | Biodistribution of radioactivity: Bone ([3]; 4 h after injection): 0.14 (0.05) % injected dose per gram | Biodistribution of radioactivity: Brain ([3]; 4 h after injection): 0.01 (0.00) % injected dose per gram | Biodistribution of radioactivity: Heart ([3]; 4 h after injection): 0.04 (0.02) % injected dose per gram | Biodistribution of radioactivity: Kidney ([3]; 4 h after injection): 1.54 (0.08) % injected dose per gram | Biodistribution of radioactivity: L. Intestine ([3]; 4 h after injection): 0.59 (0.79) % injected dose per gram | Biodistribution of radioactivity: Liver ([3]; 4 h after injection): 0.08 (0.01) % injected dose per gram | Biodistribution of radioactivity: Lung ([3]; 4 h after injection): 0.06 (0.01) % injected dose per gram | Biodistribution of radioactivity: Muscle ([3]; 4 h after injection): 0.02 (0.01) % injected dose per gram | Biodistribution of radioactivity: Neck ([3]; 4 h after injection): 0.00 (0.00) % injected dose | Biodistribution of radioactivity: Pancreas ([3]; 4 h after injection): 0.04 (0.02) % injected dose per gram | Biodistribution of radioactivity: S. Intestine ([3]; 4 h after injection): 0.22 (0.17) % injected dose per gram | Biodistribution of radioactivity: Spleen ([3]; 4 h after injection): 0.05 (0.01) % injected dose per gram | Biodistribution of radioactivity: Stomach ([3]; 4 h after injection): 0.07 (0.04) % injected dose | Biodistribution of radioactivity: Blood ([3]; 24 h after injection): 0.01 (0.00) % injected dose per gram | Biodistribution of radioactivity: Bone ([3]; 24 h after injection): 0.16 (0.04) % injected dose per gram | Biodistribution of radioactivity: Brain ([3]; 24 h after injection): 0.00 (0.00) % injected dose per gram | Biodistribution of radioactivity: Heart ([3]; 24 h after injection): 0.01 (0.01) % injected dose per gram | Biodistribution of radioactivity: Kidney ([3]; 24 h after injection): 0.29 (0.06) % injected dose per gram | Biodistribution of radioactivity: L. Intestine ([3]; 24 h after injection): 0.15 (0.11) % injected dose per gram | Biodistribution of radioactivity: Liver ([3]; 24 h after injection): 0.04 (0.01) % injected dose per gram | Biodistribution of radioactivity: Lung ([3]; 24 h after injection): 0.02 (0.01) % injected dose per gram | Biodistribution of radioactivity: Muscle ([3]; 24 h after injection): 0.01 (0.00) % injected dose per gram | Biodistribution of radioactivity: Neck ([3]; 24 h after injection): 0.00 (0.00) % injected dose | Biodistribution of radioactivity: Pancreas ([3]; 24 h after injection): 0.02 (0.01) % injected dose per gram | Biodistribution of radioactivity: S. Intestine ([3]; 24 h after injection): 0.04 (0.03) % injected dose per gram | Biodistribution of radioactivity: Spleen ([3]; 24 h after injection): 0.03 (0.01) % injected dose per gram | Biodistribution of radioactivity: Stomach ([3]; 24 h after injection): 0.05 (0.04) % injected dose
